Reference: patent US11179391B2, “Compound with kinase inhibitory activity and preparation method and use thereof” (priority 2017, dated 2021)

Columns and labels:
[1] = molecular target: CDK6/cycD3 (Homo sapiens, UniProt Q00534); experiment: Determination of CDK activity (Caliper mobility shift, FAM-P8 peptide): CDK6; format: biochemical; settings: CDK6/cycD3; read-out: CDK6 enzymatic inhibitory activity (IC50)
How it was run: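 GST-CDK6(1-326)/cycD3 with FAM-P8 peptide and ATP, after 10 min room-temperature enzyme–compound preincubation; reaction at 28 °C, then EDTA stop. Substrate conversion read by Caliper mobility shift; inhibition from no-compound and no-enzyme controls, IC50 fitted over 10-point dilution in DMSO.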

[2] = system: Human breast cancer MDA-MB-361 cells; experiment: Pharmacodynamic study on mouse MDA-MB-361 model (subcutaneous xenograft); format: in vivo, SCID Beige mice; settings: for inhibitory effect on the tumor growth (in words): 15 mg/kg, continuous PO administration for 28 days; for Tumor volume (day 0): baseline at start of dosing; for Tumor volume (day 0) / Tumor volume (day 28) / T/C relative tumor proliferation rate / TGI tumor growth inhibition: methanesulfonic acid salt, 15 mg/kg PO × 28 days; for T/C relative tumor proliferation rate / TGI tumor growth inhibition: day 28
[3] = system: Human breast cancer MCF-7 cells; experiment: Pharmacodynamic study on mouse MCF-7 model (subcutaneous xenograft); format: in vivo, BALB/c nude mice; settings: for Tumor volume (day 0) / antitumor effect compared with Abemaciclib (in words) / Tumor volume (day 14) / T/C relative tumor proliferation rate / TGI tumor growth inhibition rate: MCF-7 model; for Tumor volume (day 0): baseline at start of dosing; for Tumor volume (day 0) / Tumor volume (day 14) / T/C relative tumor proliferation rate / TGI tumor growth inhibition rate: mesylate, 30 mg/kg PO × 14 days; for antitumor effect compared with Abemaciclib (in words): same dosage (30 mg/kg PO × 14 days); for T/C relative tumor proliferation rate / TGI tumor growth inhibition rate: day 14; for inhibitory effect on the tumor growth (in words): MCF-7 nude mouse model, 30 mg/kg, continuous PO administration for 14 days
[4] = molecular target: CDK9/cyclinTl (Homo sapiens, UniProt P50750); experiment: Determination of CDK activity (Caliper mobility shift, FAM-P8 peptide): CDK9; format: biochemical; settings: CDK9/cyclinTl; read-out: CDK9 enzymatic inhibitory activity (IC50)
[5] = system: Human leukemia MV4-11 cells; experiment: Pharmacodynamic study on mouse MV4-11 model (subcutaneous xenograft); format: in vivo, BALB/c nude mice; settings: for tumor inhibition effect compared with Abemaciclib (in words) / Tumor volume (day 0) / Tumor volume (day 21) / T/C relative tumor proliferation rate / TGI tumor growth inhibition rate: MV4-11 model, 50 mg/kg PO × 21 days; for Tumor volume (day 0): baseline at start of dosing; for Tumor volume (day 0) / Tumor volume (day 21) / T/C relative tumor proliferation rate / TGI tumor growth inhibition rate: mesylate; for T/C relative tumor proliferation rate / TGI tumor growth inhibition rate: day 21; for inhibitory effect on the tumor growth (in words): MV4-11 nude mouse model, 50 mg/kg, continuous PO administration for 21 days
[6] = molecular target: CDK7/CyclinH/MAT1 (Homo sapiens, UniProt P50613); experiment: Determination of CDK activity (Caliper mobility shift, FAM-P8 peptide): CDK7; format: biochemical; settings: CDK7/CyclinH/MAT1; read-out: CDK7 enzymatic inhibitory activity (IC50)
How it was run: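 His-CDK7/GST-MAT1/cyclin H preincubated with compound (10-point series) 10 min at room temperature, then reacted with FAM-P8 peptide plus ATP at 28 °C for a set time before stopping. Peptide conversion read by Caliper mobility shift; converted to % inhibition vs controls and IC50 fitted.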

[7] = molecular target: CDK2/CycA2 (Homo sapiens, UniProt P24941); experiment: Determination of CDK activity (Caliper mobility shift, FAM-P8 peptide): CDK2; format: biochemical; settings: CDK2/CycA2; read-out: CDK2 enzymatic inhibitory activity (IC50)
[8] = molecular target: CDK1/CyclinB (Homo sapiens, UniProt P06493); experiment: Determination of CDK activity (Caliper mobility shift, FAM-P8 peptide): CDK1; format: biochemical; settings: CDK1/CyclinB; read-out: CDK1 enzymatic inhibitory activity (IC50)
[9] = molecular target: CDK4/CycD3 (Homo sapiens, UniProt P11802); experiment: Determination of CDK activity (Caliper mobility shift, FAM-P8 peptide): CDK4; format: biochemical; settings: CDK4/CycD3; read-out: CDK4 enzymatic inhibitory activity (IC50)
How it was run: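 GST-CDK4(1-303)/GST-CycD3(1-292) was preincubated with compound for 10 min at room temperature, then FAM-P8 peptide and ATP were added; the reaction ran at 28 °C and was stopped with EDTA-containing stop buffer. Peptide conversion was read by Caliper mobility shift. A 10-point dilution series was fitted for IC50.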

CDK9/cyclinTl, sequence (P50750 whole entry): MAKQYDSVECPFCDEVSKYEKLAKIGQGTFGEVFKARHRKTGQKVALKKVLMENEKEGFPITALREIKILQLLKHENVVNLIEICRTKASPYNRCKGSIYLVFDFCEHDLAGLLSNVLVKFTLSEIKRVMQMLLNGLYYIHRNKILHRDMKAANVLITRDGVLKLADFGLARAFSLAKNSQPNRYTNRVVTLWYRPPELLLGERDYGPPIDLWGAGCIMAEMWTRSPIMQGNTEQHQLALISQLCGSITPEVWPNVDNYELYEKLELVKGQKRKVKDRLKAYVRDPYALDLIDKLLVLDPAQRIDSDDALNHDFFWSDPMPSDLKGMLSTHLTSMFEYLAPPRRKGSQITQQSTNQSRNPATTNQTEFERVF
CDK9/cyclinTl, sequence (O60563 whole entry partner): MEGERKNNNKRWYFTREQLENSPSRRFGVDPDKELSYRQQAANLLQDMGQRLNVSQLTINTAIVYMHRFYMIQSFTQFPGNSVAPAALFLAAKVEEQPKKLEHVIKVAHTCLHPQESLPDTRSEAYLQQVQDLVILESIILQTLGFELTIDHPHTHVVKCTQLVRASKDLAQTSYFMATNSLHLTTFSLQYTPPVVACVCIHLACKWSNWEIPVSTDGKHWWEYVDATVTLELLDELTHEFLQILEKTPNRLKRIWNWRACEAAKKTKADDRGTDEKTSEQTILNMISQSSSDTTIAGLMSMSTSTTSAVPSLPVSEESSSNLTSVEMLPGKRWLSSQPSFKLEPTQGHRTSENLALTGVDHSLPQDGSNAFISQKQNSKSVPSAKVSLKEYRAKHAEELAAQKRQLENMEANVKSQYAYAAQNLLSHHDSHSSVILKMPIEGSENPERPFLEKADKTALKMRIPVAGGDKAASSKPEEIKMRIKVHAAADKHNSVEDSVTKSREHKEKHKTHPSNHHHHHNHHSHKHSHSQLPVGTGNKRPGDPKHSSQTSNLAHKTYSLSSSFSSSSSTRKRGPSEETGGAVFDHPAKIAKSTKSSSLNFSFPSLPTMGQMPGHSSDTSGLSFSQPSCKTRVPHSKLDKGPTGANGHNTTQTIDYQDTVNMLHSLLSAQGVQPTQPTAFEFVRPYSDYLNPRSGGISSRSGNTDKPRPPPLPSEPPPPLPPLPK
CDK7/CyclinH/MAT1, sequence (P50613 whole entry): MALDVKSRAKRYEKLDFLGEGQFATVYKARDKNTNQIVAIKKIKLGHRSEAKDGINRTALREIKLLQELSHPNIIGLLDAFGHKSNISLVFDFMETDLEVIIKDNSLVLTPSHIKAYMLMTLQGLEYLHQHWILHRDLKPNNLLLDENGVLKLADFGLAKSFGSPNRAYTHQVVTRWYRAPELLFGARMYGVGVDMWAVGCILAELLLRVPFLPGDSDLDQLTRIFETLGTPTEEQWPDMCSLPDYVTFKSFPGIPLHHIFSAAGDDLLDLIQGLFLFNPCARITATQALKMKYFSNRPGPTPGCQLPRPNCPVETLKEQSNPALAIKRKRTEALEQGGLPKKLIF
CDK7/CyclinH/MAT1, sequence (P51946 whole entry partner): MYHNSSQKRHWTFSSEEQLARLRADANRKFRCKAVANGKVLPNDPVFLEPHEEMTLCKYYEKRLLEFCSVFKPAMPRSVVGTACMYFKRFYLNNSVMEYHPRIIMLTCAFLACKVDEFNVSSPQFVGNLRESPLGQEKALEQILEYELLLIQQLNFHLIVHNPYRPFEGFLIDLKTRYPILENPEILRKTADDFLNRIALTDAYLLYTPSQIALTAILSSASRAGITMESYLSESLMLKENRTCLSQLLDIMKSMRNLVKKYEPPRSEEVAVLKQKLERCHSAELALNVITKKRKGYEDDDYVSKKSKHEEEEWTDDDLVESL
CDK7/CyclinH/MAT1, sequence (P51948 whole entry partner): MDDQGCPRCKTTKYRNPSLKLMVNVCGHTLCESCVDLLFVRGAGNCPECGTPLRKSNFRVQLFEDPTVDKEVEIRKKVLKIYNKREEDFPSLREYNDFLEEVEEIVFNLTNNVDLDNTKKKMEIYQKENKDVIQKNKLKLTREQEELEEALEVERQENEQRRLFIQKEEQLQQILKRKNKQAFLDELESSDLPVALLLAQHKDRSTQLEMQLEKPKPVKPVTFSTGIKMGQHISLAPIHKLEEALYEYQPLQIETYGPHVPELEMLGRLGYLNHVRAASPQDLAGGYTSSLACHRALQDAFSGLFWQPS
CDK6/cycD3, sequence (Q00534 whole entry): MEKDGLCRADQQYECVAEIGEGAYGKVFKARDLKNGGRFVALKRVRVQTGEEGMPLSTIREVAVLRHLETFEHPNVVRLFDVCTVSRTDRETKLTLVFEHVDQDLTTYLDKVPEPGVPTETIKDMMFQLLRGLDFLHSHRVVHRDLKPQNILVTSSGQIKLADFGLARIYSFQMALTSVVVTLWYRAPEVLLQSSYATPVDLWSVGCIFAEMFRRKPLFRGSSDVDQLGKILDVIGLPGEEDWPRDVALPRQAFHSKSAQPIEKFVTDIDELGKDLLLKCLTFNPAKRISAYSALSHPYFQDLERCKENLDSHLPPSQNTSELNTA
CDK6/cycD3, sequence (P30281 whole entry partner): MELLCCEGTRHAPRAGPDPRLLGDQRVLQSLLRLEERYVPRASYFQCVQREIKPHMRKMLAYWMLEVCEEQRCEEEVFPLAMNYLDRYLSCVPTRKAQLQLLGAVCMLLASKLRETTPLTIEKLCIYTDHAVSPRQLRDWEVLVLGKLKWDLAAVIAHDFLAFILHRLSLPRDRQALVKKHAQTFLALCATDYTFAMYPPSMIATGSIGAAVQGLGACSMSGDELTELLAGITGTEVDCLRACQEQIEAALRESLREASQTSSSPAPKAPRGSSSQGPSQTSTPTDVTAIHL
CDK1/CyclinB, sequence (P06493 whole entry): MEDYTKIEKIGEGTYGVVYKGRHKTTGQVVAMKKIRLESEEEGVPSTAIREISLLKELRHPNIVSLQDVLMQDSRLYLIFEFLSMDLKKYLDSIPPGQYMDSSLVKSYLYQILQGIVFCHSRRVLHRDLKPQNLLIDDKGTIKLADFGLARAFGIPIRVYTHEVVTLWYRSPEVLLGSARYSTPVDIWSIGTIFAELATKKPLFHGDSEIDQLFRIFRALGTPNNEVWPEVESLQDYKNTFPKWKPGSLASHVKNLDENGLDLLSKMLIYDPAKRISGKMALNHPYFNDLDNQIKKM
CDK1/CyclinB, sequence (P14635 whole entry partner): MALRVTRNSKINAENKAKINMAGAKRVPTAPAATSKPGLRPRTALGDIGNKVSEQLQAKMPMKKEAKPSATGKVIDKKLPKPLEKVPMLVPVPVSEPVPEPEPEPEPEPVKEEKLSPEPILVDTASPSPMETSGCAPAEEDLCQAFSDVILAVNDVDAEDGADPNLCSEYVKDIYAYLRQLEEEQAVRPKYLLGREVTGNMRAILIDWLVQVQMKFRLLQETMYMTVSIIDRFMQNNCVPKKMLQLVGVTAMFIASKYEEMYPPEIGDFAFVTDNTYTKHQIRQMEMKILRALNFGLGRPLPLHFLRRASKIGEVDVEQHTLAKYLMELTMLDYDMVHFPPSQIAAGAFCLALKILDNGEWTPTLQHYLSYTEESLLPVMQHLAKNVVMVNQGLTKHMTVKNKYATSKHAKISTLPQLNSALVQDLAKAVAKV
CDK4/CycD3, sequence (P11802 whole entry): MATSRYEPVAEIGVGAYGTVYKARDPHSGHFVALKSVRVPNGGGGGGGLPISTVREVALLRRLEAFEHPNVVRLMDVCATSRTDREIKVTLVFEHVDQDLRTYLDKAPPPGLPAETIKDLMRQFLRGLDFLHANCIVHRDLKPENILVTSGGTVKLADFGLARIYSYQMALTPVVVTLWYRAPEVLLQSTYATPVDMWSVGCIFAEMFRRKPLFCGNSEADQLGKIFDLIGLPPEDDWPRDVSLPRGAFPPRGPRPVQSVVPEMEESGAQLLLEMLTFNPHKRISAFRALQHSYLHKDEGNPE
CDK4/CycD3, sequence (P30281 whole entry partner): as the sequence (P30281 whole entry partner) above

Compound	IC50 [1]	inhibitory effect on the tumor growth (in words) [2]	Tumor volume (day 0) [2]	Tumor volume (day 28) [2]	T/C relative tumor proliferation rate [2]	TGI tumor growth inhibition [2]	Tumor volume (day 0) [3]	antitumor effect compared with Abemaciclib (in words) [3]	Tumor volume (day 14) [3]	T/C relative tumor proliferation rate [3]	TGI tumor growth inhibition rate [3]	inhibitory effect on the tumor growth (in words) [3]	IC50 [4]	tumor inhibition effect compared with Abemaciclib (in words) [5]	Tumor volume (day 0) [5]	Tumor volume (day 21) [5]	T/C relative tumor proliferation rate [5]	TGI tumor growth inhibition rate [5]	inhibitory effect on the tumor growth (in words) [5]	IC50 [6]	other results
CCN1CCC(C(C)c2ccc(Nc3ncc(F)c(-c4cc(F)c5nc(C)n(C(C)C)c5c4)n3)nc2)CC1 (single isomer, unassigned) [Example 17, (R or S)—N-(5-(1-(1-ethylpiperidin-4-yl)ethyl)pyridin-2-yl)-5-fluoro-4-(4-fluoro-1-isopropyl-2-methyl-1H-benzo[d]imidazol-6-yl) pyrimidin-2-amine]	< 0.1 µM	very strong inhibitory effect	175 mm^3	90 mm^3	−49%	149%	210 mm^3	better antitumor effects than positive control compound Abemaciclib	216 mm^3	0.9%	99.1%	strong inhibitory effect	0.1 to 0.5 µM	equivalent to that of positive control compound Abemaciclib	158 mm^3	463 mm^3	38%	62%	good inhibitory effect	1 to 10 µM	IC50 [7]: < 0.1 µM; IC50 [8]: 0.1 to 0.5 µM; IC50 [9]: < 0.1 µM
CCN1CCC(=Cc2ccc(Nc3ncc(F)c(-c4cc(F)c5nc(C)n(C(C)C)c5c4)n3)nc2)CC1 [Example 57, N-(5-((1-ethylpiperidin-4-ylidene)methyl)pyridin-2-yl)-5-fluoro-4-(4-fluoro-1-isopropyl-2-methyl-1H-benzo[d]imidazol-6-yl)pyrimidin-2-amine]	< 0.1 µM	very strong inhibitory effect	175 mm^3	99 mm^3	−43%	143%	209 mm^3	better antitumor effects than positive control compound Abemaciclib	290 mm^3	12.5%	87.5%	strong inhibitory effect	< 0.1 µM	equivalent to that of positive control compound Abemaciclib	158 mm^3	491 mm^3	41%	59%	good inhibitory effect	1 to 10 µM	IC50 [7]: < 0.1 µM; IC50 [8]: 0.1 to 0.5 µM; IC50 [9]: < 0.1 µM
